Experimental data: US8916132B2, “Benzimidazole-derived compounds use as markers in the case of neurodegenerative diseases” (Servicios Cientificos Neuroinnovation Ltda, priority 2008, dated 2014)
Where two headings read alike, the source gives them in different places.

Legend:
[1] = test system: human tau protein aggregates (PHFs); assay: ^3H-Astemizole saturation binding to tau protein aggregates; conditions: for Bmax/Kd Index: Tau Protein Aggregates (PHF)
[2] = test system: neurofibrillary tangles (NFTs); assay: Fixation in neurofibrillary tangles in postmortem brain sections of Alzheimer patients; conditions: co-localization with PHF-1 antibody, tritiated or fluorescent marking
Method: This evaluation was carried out by means of immunohistochemistry with antibodies specific for senile plaque, 6E10 antibody reactive against 6-13 residues of Aβ peptide, and the tau-specific PHF1 antibody.
In short, postmortem brains of patients with a proven clinical diagnosis of Alzheimer's Disease are set in formalin at 10%, with slices with sections varying from 5 to 200 μm made, preferably with 20 μm. These slices are incubated in benzimidazoles marked pursuant to the present invention and afterwards incubated with the specific 6E10 and PHF1 antibodies to determine the co-localization of the marker in the tau protein structures of the cerebral sections under study.
For practical purposes and as part of the examples, the co-localization of marked tau with fluorophore conjugate antibodies with the localization of the fluorescently marked drug is analyzed. The co-localization of both drugs with the tau aggregated structures in the hippocampus region, entorhinal cortex and nucleous of Meynert in the postmortem brains with Alzheimer's Disease was reviewed.

[3] = Partition coefficient octanol / pH 7.4 tampon; conditions: for LogP Coefficient: octanol / pH 7.4 tampon, 25° C.; for CNS LogP: partition coefficient in relation to ability to cross the HEB
Method: (§1) The analyzed parameters were: specific permeability (Sp), this is an indicator of the compound's ability to cross the hematoencephalic barrier (HEB) by passive diffusion, and the partition coefficient (LogP), which corresponds to the partition coefficient of the compound between Octanol and the pH 7.4 phosphate tampon, which is a predictive element for the compound's penetration of the HEB.
Briefly, the partition coefficient (log Po/w) was determined in a pH 7.4 tampon solution, adjusted with 0.1 M sodium hydroxide. The organic phase utilized octanol saturated with the pH 7.4 tampon solution. A 1 mg/mL solution of the drug in methanol was prepared. Dilutions with concentrations ranging from 0.02 to 0.4 mg/mL were prepared from these solutions. Then […] portions were taken from each of these previously prepared stock solutions in 25 mL volumetric flasks, with the volume completed with the tampon pH 7.4. 25 ml of octanol where then measured and placed in three decantation funnels, with the previously prepared solutions added to each, mixing both phases by vigorous agitation during two minutes. […] Both phases are separated once equilibrium had been reached. The aqueous phase was centrifuged during 3 minutes to ensure complete separation of the phases. The entire process was carried out at a temperature of 25° C. The quantification was carried out with a UVN spectrophotometer.

[4] = rat, in vivo, iv
in vitro = assay: in vitro
From the text: as §1
The Parallel Artificial Membrane Permeability assay (PAMPA) is based on the ability of compounds to diffuse from a donor compartment through a Polyvinylidene Fluoride Membrane Filter (PVDF) covered with a phosphatidylcholine solution at 20% towards a second acceptor compartment, which is analyzed. […] The quantification was carried out by means of spectrophotometry, using pans 1 mm in length and with a capacity of 300 uL.

[5] = biological target: Aβ1-42 Peptide Aggregates (Homo sapiens, UniProt P05067); assay: ^3H-Astemizole saturation binding to Aβ1-42 peptide aggregates
in vivo = conditions: male, C2 albino, rat, iv
Aβ Fibers = Aβ Fibers (Homo sapiens, UniProt P05067); conditions: Okamura et al., 2005; cited from earlier work
mGluR7 = mGluR7 (Homo sapiens, UniProt Q14831); conditions: Yanamala et al., 2008; cited from earlier work
Alzheimer PHF = Alzheimer PHF (Homo sapiens, UniProt P10636); assay: ^3H-Astemizole displacement test, Alzheimer PHF
Tau Filaments in Vitro = Tau Filaments in Vitro (Homo sapiens, UniProt P10636); assay: ^3H-Astemizole displacement test, tau filaments in vitro
[6] = In vivo pharmacokinetics in blood and cerebral tissue (HPLC/UV); conditions: male, C2 albino, rat, iv, astemizole 16 mg/kg, lansoprazole 8 mg/kg
[7] = saturation test, Tau Protein Aggregates

Aβ1-42 Peptide Aggregates, sequence (P05067 672-713): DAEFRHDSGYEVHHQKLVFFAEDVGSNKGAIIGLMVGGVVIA
Alzheimer PHF, sequence (P10636 623-758 limits assumed): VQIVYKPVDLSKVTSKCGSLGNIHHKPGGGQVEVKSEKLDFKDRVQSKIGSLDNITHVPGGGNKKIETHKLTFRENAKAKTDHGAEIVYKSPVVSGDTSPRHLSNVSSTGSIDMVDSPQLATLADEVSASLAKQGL
Tau Filaments in Vitro, sequence (P10636 1-441 isoform P10636-8): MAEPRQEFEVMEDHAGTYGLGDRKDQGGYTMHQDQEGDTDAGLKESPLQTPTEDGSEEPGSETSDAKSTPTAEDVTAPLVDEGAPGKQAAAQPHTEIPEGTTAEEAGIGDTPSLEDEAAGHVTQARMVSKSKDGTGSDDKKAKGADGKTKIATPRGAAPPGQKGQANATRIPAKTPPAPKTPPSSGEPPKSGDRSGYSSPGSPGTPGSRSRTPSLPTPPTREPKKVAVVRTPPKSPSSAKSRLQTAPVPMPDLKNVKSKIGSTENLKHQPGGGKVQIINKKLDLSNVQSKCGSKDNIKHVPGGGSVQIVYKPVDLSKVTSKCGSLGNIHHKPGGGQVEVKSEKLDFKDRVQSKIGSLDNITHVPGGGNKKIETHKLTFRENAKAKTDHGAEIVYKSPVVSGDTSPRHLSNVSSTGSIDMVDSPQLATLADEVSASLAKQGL
mGluR7, sequence (Q14831 35-915): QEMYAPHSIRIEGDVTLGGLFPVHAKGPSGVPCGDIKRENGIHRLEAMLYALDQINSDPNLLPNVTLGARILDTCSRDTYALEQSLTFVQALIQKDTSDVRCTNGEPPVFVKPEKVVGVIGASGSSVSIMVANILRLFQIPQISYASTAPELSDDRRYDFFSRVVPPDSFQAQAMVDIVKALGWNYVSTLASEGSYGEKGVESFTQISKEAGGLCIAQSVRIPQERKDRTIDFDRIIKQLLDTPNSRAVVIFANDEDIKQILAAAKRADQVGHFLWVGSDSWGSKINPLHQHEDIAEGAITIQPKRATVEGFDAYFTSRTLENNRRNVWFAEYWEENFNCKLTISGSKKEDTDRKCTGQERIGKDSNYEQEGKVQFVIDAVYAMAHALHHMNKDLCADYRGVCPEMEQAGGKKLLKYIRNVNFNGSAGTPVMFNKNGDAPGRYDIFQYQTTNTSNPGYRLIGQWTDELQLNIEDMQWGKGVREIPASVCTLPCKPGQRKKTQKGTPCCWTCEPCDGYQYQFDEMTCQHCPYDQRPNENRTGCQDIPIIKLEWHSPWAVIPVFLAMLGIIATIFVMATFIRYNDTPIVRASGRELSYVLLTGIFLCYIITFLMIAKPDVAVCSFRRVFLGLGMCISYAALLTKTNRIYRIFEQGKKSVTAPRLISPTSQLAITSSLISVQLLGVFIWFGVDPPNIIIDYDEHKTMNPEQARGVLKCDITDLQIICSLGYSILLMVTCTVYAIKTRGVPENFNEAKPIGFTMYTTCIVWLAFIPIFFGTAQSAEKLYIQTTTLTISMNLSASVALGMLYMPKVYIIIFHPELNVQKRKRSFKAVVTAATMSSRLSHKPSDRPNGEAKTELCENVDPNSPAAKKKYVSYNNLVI
Aβ Fibers, sequence (P05067 672-713 limits assumed): as the sequence (P05067 672-713) above

SMILES: Cc1c(OCC(F)(F)[18F])ccnc1C[S+]([O-])c1nc2ccccc2[nH]1 (centres unmarked) [^18F-Lansoprazole]
- brain/blood bio-distribution relation (at 30 minutes): 0.23
- reaches the brain (at 30 minutes): 0.3%
- brain/blood bio-distribution relation (at 60 minutes): 1.27
- reaches the brain (at 60 minutes): 0.14%

SMILES: COc1ccc(CCN2CCC(Nc3nc4ccccc4n3Cc3ccc(F)cc3)CC2)cc1 [Astemizole]
- Bmax/Kd Index [1]: 3.316
- marking of tau aggregates / NFTs in postmortem AD brain sections [2]: bond to the NFTs structures
- marking of tau aggregates / NFTs in postmortem AD brain sections ([2]; listed as astemizole): efficiently and selectively mark those sectors positive for tau
- LogP Coefficient [3]: 5.57
- CNS LogP [3]: Favorable
- average life in plasma compared with brain [4]: less than in the brain
- CNS Transport (in vitro; PAMPA): Positive
- Papp (in vitro; PAMPA): 147 ×10⁻⁶ cm/s
- Bmax/Kd Index [5]: 0.057
- Tmax (in vivo; maximum concentration (Tmax) in blood): 28 min
- Tmax (in vivo; maximum concentration (Tmax) in the brain): 55 min

SMILES: COc1ccc(CCN2CCC(Nc3nc4ccccc4n3Cc3ccc(F)cc3)CC2)cc1 [^3H-Astemizole]
- Kd [1, 7]: 3.94 nM
- Kd ([5]; saturation test): 2.1 nM

SMILES: CNc1ccc(/C=C/c2nc3ccc(OCCF)cc3o2)cc1 [BF168]
- Ki (Aβ Fibers): 6.4 nM

SMILES: CCCC(C)C1(CC)C(=O)NC(=S)NC1=O (centres unmarked) [Thiopental]
- LogP Coefficient [3]: 1.4
- Papp (in vitro): 17 ×10⁻⁶ cm/s

SMILES: [3H]C([3H])([3H])Oc1ccc(CCN2CCC(Nc3nc4ccccc4n3Cc3ccc(F)cc3)CC2)cc1 [^3H-Astemizole]
- Bmax/Kd Index [1]: 3.316
- binding affinity to tau protein aggregate forms compared with Aβ ([1]; at low concentrations, FIG. 7): greater binding affinity to tau protein aggregate forms than to Aβ
- Bmax [1, 7]: 13.07 nM
- Bmax/Kd Index [5]: 0.057
- Bmax ([5]; saturation test): 0.12 pmol/nmol Aβ1-42

SMILES: c1ccc(C(NCCNC(c2ccccc2)c2ccccc2)c2ccccc2)cc1 [AMN82]
- Binding Energies Autodock (mGluR7): -7.56 kcal/mol

SMILES: C[N+]12CCC(CC1)C(OC(=O)C(O)(c1ccccc1)c1ccccc1)C2 (centres unmarked) [Clidinium Bromide]
- LogP Coefficient [3]: −0.092
- CNS LogP [3]: Unfavorable
- CNS Transport (in vitro): Negative
- Papp (in vitro): 0.029 ×10⁻⁶ cm/s

SMILES: Cc1c(OCC(F)(F)F)ccnc1C[S+]([O-])c1nc2ccccc2[nH]1 (centres unmarked) [Lansoprazole]
- Ki (Alzheimer PHF): 833 nM
- Ki (Tau Filaments in Vitro): 2.7 nM
- marking of tau aggregates / NFTs in postmortem AD brain sections [2]: bond to the NFTs structures
- marking of tau aggregates / NFTs in postmortem AD brain sections ([2]; listed as Lansoprazol): fluorescent staining of Tau protein aggregates
- marking of tau aggregates / NFTs in postmortem AD brain sections ([2]; listed as lansoprazole): efficiently and selectively mark those sectors positive for tau
- persistency in the encephalon / brain ([4]; male, C2 albino): at least 3 hours
- average life in plasma compared with brain [4]: less than in the brain
- CNS Transport (in vitro; PAMPA): Positive
- Coefficient (Sp) specific permeability (in vitro; PAMPA): 3.63E−05
- Tmax ([6]; brain (cerebral tissue), maximum concentration (Tmax) in the brain, cerebral tissue): 37 min
- Tmax ([6]; whole blood (intracardiac), maximum concentration (Tmax) in blood, intracardiac blood): 30 min
